Results on 22 compounds are retold here after patent US8501794B2, “Compounds as cannabinoid receptor ligands” (priority 2007, dated 2013).

The target of one test is T1, human CB2 receptors (Homo sapiens, UniProt P34972).
T1 construct: expressed in transfected cells; host or cells: HEK293
The test is described as follows: human CB2 radioligand binding assay ([3H]CP-55,940 competition).

For test [1], the target named is T2, rat CB2 (Rattus norvegicus, UniProt Q9QZN9).
T2 sequence (Q9QZN9 1-360): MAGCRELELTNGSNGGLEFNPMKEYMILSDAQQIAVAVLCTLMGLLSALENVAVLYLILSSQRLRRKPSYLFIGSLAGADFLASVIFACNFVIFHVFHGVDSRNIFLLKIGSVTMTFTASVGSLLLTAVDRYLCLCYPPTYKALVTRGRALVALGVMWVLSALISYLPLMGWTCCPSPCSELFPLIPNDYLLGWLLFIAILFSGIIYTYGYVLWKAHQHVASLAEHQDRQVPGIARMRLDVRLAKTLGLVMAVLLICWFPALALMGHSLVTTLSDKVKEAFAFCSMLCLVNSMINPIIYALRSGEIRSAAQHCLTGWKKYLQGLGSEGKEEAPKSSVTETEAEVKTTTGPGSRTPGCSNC
The test is described as follows: rat CB2 cyclase functional assay (HitHunter cAMP, HEK cells). The format is cell-based. On the set-up: expressed in transfected cells; host or cells: HEK. Conditions: forskolin 18 μM.

Test [2] concerns the target T2, rat CB2. In words: rat CB2 radioligand binding assay ([3H]CP-55,940 competition). Also noted: expressed in transfected cells; host or cells: HEK293.

T1 sequence (P34972 whole entry): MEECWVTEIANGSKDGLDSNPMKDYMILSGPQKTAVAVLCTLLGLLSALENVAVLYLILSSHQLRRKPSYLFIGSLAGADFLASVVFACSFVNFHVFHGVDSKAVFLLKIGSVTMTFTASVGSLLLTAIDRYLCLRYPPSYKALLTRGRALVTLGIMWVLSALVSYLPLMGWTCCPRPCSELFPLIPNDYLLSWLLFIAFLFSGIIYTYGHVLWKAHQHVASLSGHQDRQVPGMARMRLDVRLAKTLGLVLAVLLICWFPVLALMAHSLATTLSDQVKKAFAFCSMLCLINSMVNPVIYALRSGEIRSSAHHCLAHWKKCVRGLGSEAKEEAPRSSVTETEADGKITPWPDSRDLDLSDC

Take `CCCCc1cn(C(C)(C)C)s/c1=N\C(=O)[C@@H]1CC[C@](C)(C(=O)NCCO)C1(C)C` [Example 212, (1S,3R)—N^3-[(5Z)-4-butyl-2-tert-butylisothiazol-5(2H)-ylidene]-N^1-(2-hydroxyethyl)-1,2,2-trimethylcyclopentane-1,3-dicarboxamide]: the Ki at human CB2 receptors came to 180 nM; on rat CB2 [2], 257 nM. Besides, the 50% effective concentration (EC50) on rat CB2 [1] stood at 6.2 nM.

As to `COc1ccc(C#N)cc1C(=O)/N=c1\sn(C(C)(C)C)cc1CC(C)C` [Example 145, N-[(5Z)-2-tert-butyl-4-isobutylisothiazol-5(2H)-ylidene]-5-cyano-2-methoxybenzamide], the inhibition constant (Ki) amounted to 58 nM on human CB2 receptors and 6.1 nM at rat CB2 [2]. Also, the EC50 on rat CB2 [1] is 0.078 nM.

For `CON=CCCc1cn(C(C)(C)C)s/c1=N\C(=O)c1cc(Cl)ccc1OC` [Example 15, N-[(5Z)-2-tert-butyl-4-[3-(methoxyimino)propyl]isothiazol-5(2H)-ylidene]-5-chloro-2-methoxybenzamide], the Ki on human CB2 receptors is 170 nM; on rat CB2 [2] it was 15 nM. The compound further had an EC50 at rat CB2 [1] of 1.1 nM.

As for `CCCCc1cn(C(C)(C)C)s/c1=N\S(=O)(=O)C1CCCCC1` [Example 118, N-[(5Z)-4-butyl-2-tert-butylisothiazol-5(2H)-ylidene]cyclohexanesulfonamide], the inhibition constant Ki on human CB2 receptors was 43 nM; at rat CB2 [2] it was 119 nM. On rat CB2 [1], this compound showed an EC50 of 5.1 nM.

With `COc1ccc(Cl)cc1C(=O)/N=c1\sn(C(C)(C)C)cc1CCN=[N+]=[N-]` [Example 14, N-[(5Z)-4-(2-azidoethyl)-2-tert-butylisothiazol-5(2H)-ylidene]-5-chloro-2-methoxybenzamide], the inhibition constant Ki on human CB2 receptors amounted to 26 nM; at rat CB2 [2], 2.4 nM. The EC50 on rat CB2 [1] was determined as 0.71 nM.

`CCCCc1cn(C(C)(C)C)s/c1=N\C(=NC#N)c1cc(Cl)ccc1OC` [Example 110, N-[(5Z)-4-butyl-2-tert-butylisothiazol-5(2H)-ylidene]-5-chloro-N′-cyano-2-methoxybenzenecarboximidamide]: the inhibition constant (Ki) was determined as 3 nM at human CB2 receptors and 1.6 nM on rat CB2 [2]. This compound also had a concentration for a half-maximal effect (EC50) at rat CB2 [1] of 0.12 nM.

For `CCCCc1cn(C(C)(C)CF)s/c1=N\C(=O)c1cc(Cl)ccc1OC` [Example 154, N-[(5Z)-4-butyl-2-(2-fluoro-1,1-dimethylethyl)isothiazol-5(2H)-ylidene]-5-chloro-2-methoxybenzamide], the Ki at human CB2 receptors was found to be 5.7 nM; at rat CB2 [2], 0.32 nM. On rat CB2 [1], this compound gave a concentration giving a half-maximal response (EC50) of 0.065 nM.

Regarding `CCCCc1cn(C(C)(C)C)s/c1=N\C(=O)[C@]1(C)CC[C@H](C(=O)OCC)C1(C)C` [Example 175, Ethyl (1S,3R)-3-({[(5Z)-4-butyl-2-tert-butylisothiazol-5(2H)-ylidene]amino}carbonyl)-2,2,3-trimethylcyclopentanecarboxylate], the inhibition constant Ki at human CB2 receptors came out at 3.8 nM; at rat CB2 [2] it was 1.5 nM. Moreover, the midpoint of the response on rat CB2 [1], the EC50, lay at 0.54 nM.

Regarding `CCCCc1cn(C(C)(C)C)s/c1=N\C(=O)c1cc(Cl)ccc1OCCF` [Example 139, N-[(5Z)-4-butyl-2-tert-butylisothiazol-5(2H)-ylidene]-5-chloro-2-(2-fluoroethoxy)benzamide], the inhibition constant (Ki) is 5.5 nM on human CB2 receptors and 2 nM on rat CB2 [2]. The compound also returned an EC50 at rat CB2 [1] of 0.059 nM.

On to `CCCCc1cn(C(C)(C)C)s/c1=N\C(=O)c1cc(C(F)(F)F)ccc1OC` [Example 127, N-[(5Z)-4-butyl-2-tert-butylisothiazol-5(2H)-ylidene]-2-methoxy-5-(trifluoromethyl)benzamide], for which the figures for the inhibition constant Ki at human CB2 receptors and on rat CB2 [2] were 3.7 nM and 0.43 nM, respectively. In addition, at rat CB2 [1], the EC50 is 0.16 nM.

Take `C=CCc1cn(C(C)(C)C)s/c1=N\C(=O)c1cc(Cl)ccc1OC` [Example 6, N-[(5Z)-4-allyl-2-tert-butylisothiazol-5(2H)-ylidene]-5-chloro-2-methoxybenzamide]: the inhibitory constant (Ki) at human CB2 receptors was 210 nM; on rat CB2 [2], 16 nM. This compound registered a half-maximal effective concentration (EC50) on rat CB2 [1] of 2.4 nM.

As for `CCCCc1cn(C(C)(C)C)s/c1=N\C(=O)[C@]1(C)CC[C@H](C(=O)NC)C1(C)C` [Example 184, (1R,3S)—N^1-[(5Z)-4-butyl-2-tert-butylisothiazol-5(2H)-ylidene]-N^3,1,2,2-tetramethylcyclopentane-1,3-dicarboxamide], the inhibitory constant (Ki) on human CB2 receptors came to 6.5 nM; at rat CB2 [2] it was 3.2 nM. This compound also yielded a 50% effective concentration (EC50) on rat CB2 [1] of 0.41 nM.

Turning to `CCCCc1cn(C(C)(C)C)s/c1=N\C(=O)c1cc(C(F)(F)F)ccc1OC[C@@H]1COC(=O)N1` [Example 195, N-[(5Z)-4-butyl-2-tert-butylisothiazol-5(2H)-ylidene]-2-{[(4R)-2-oxo-1,3-oxazolidin-4-yl]methoxy}-5-(trifluoromethyl)benzamide], the inhibition constant Ki on human CB2 receptors came out at 16 nM; at rat CB2 [2] it was 7.6 nM. Moreover, the EC50 at rat CB2 [1] is 1.4 nM.

In the case of `CCCCc1cn(C(C)(C)C)s/c1=N\C(=O)[C@@]1(C)CC[C@@H](C(=O)NCC(F)(F)F)C1(C)C` [Example 240, (1S,3R)—N^1-[(5Z)-4-butyl-2-tert-butylisothiazol-5(2H)-ylidene]-1,2,2-trimethyl-N^3-(2,2,2-trifluoroethyl)cyclopentane-1,3-dicarboxamide], the figures for the inhibition constant Ki at human CB2 receptors and on rat CB2 [2] were 100 nM and 156 nM, respectively. The same compound gave a half-maximal effective concentration (EC50) at rat CB2 [1] of 2.5 nM.

In the case of `COc1ccc(Cl)cc1C(=O)/N=c1\sn(C(C)(C)C)cc1CCC1CCC1` [Example 36, N-[(5Z)-2-tert-butyl-4-(2-cyclobutylethyl)isothiazol-5(2H)-ylidene]-5-chloro-2-methoxybenzamide], the inhibitory constant (Ki) worked out at 1.3 nM on human CB2 receptors and 0.16 nM at rat CB2 [2]. A half-maximal response on rat CB2 [1] (EC50) required 0.91 nM.

On to `COc1ccc(C(F)(F)F)cc1C(=O)/N=c1\sn(C(C)(C)C)cc1CC(C)C` [Example 143, N-[(5Z)-2-tert-butyl-4-isobutylisothiazol-5(2H)-ylidene]-2-methoxy-5-(trifluoromethyl)benzamide], for which the inhibition constant (Ki) on human CB2 receptors came out at 11 nM; on rat CB2 [2], 1.8 nM. The same compound yielded an EC50 at rat CB2 [1] of 0.1 nM.

As for `CCCCc1cn(C(C)(C)C)s/c1=N\C(=NC#N)c1cc(C(F)(F)F)ccc1OC` [Example 124, N-[(5Z)-4-butyl-2-tert-butylisothiazol-5(2H)-ylidene]-N′-cyano-2-methoxy-5-(trifluoromethyl)benzenecarboximidamide], the figures for the inhibition constant Ki at human CB2 receptors and on rat CB2 [2] were 3 nM and 2.3 nM, respectively. The compound further yielded an EC50 on rat CB2 [1] of 0.027 nM.

With `CCOCc1cn(C(C)(C)C)s/c1=N\C(=O)c1cc(Cl)ccc1OC` [Example 29, N-[(5Z)-2-tert-butyl-4-(ethoxymethyl)isothiazol-5(2H)-ylidene]-5-chloro-2-methoxybenzamide], the inhibition constant Ki came out at 180 nM on human CB2 receptors and 13 nM at rat CB2 [2]. At rat CB2 [1], the EC50 amounted to 0.41 nM.

Regarding `CCCCc1cn(C(C)(C)C)s/c1=N\C(=O)C1CCC(C)(C(=O)O)C1(C)C` (stereo not drawn) [Example 105, 3-({[(5Z)-4-butyl-2-tert-butylisothiazol-5(2H)-ylidene]amino}carbonyl)-1,2,2-trimethylcyclopentanecarboxylic acid], the inhibitory constant (Ki) at human CB2 receptors stood at 19 nM; on rat CB2 [2], 17 nM. Moreover, the EC50 at rat CB2 [1] turned out to be 0.11 nM.

Consider `CCCCc1cn(C(C)(C)C)s/c1=N\C(=O)C12CC3CC(CC(C3)C1)C2` [Example 123, N-[(5Z)-4-butyl-2-tert-butylisothiazol-5(2H)-ylidene]adamantane-1-carboxamide], for which the Ki on human CB2 receptors amounted to 0.31 nM; on rat CB2 [2], 0.17 nM. It took 0.13 nM to reach a half-maximal effect at rat CB2 [1] (EC50).

As for `COc1ccc(Cl)cc1C(=O)/N=c1\sn(C(C)(C)C)cc1CC1CC1` [Example 8, N-[(5Z)-2-tert-butyl-4-(cyclopropylmethyl)isothiazol-5(2H)-ylidene]-5-chloro-2-methoxybenzamide], the Ki at human CB2 receptors turned out to be 4 nM; at rat CB2 [2], 1.1 nM. The same compound showed a 50% effective concentration (EC50) at rat CB2 [1] of 1 nM.

In the case of `CCCCc1cn(C(C)(C)C)s/c1=N\C(=O)[C@@H]1CC[C@](C)(C(=O)NCC)C1(C)C` [Example 210, (1S,3R)—N^3-[(5Z)-4-butyl-2-tert-butylisothiazol-5(2H)-ylidene]-N^1-ethyl-1,2,2-trimethylcyclopentane-1,3-dicarboxamide], the results for the Ki at human CB2 receptors and at rat CB2 [2] were 36 nM and 49 nM, respectively. Also, at rat CB2 [1], a half-maximal effect (EC50) was put at 0.19 nM.

Broadly, the Ki is a measure of affinity in units of concentration, obtained from inhibition or displacement. For orientation: EC50 means the concentration giving half of the maximal effect. Higher therefore signals a need for much substance.
